# Assay results as given in PubChem BioAssay AID1996.
# Conditions: buffer; pH 7.4; 200.0 µM
row,Compound,solubility kinetic
1,Cc1cc(C(=O)NCC(c2ccco2)N(C)C)ccc1[N+](=O)[O-] (stereo unspecified),39.7 µg/mL
2,Cc1ccc(NC(=O)CSc2nc(C)c(C)c(C)n2)cc1S(=O)(=O)N1CCOCC1,4.2 µg/mL
3,Cc1nc(SC(C(N)=O)c2ccccc2)c(C#N)c(C)c1C (stereo unspecified),1 µg/mL
4,Cc1cc(N2CCCCC2)nc2c(C)cccc12,< 0.3 µg/mL
5,O=C(c1ccccc1)N1CCCCC(Cl)C1=O (stereo unspecified),> 37.8 µg/mL
6,CC(=O)N1CCC(C(=O)NCCOc2cccc(C)c2)CC1,> 45.7 µg/mL
7,COc1ccc(-c2nc(-c3cccnc3)no2)cc1,2.1 µg/mL
8,CN(C)C(C)(C)/C=C/C(O)(c1ccccc1)c1ccccc1,43 µg/mL
9,Clc1ccccc1OCCCn1ccnc1,26.4 µg/mL
10,CCCC(=O)Nc1ccc(-c2csc(-c3cccnc3)n2)cc1,0.7 µg/mL
11,O=C(NCc1cccnc1)Nc1ccc2c(c1)OCO2,> 40.7 µg/mL
12,Cc1c([N+](=O)[O-])c2ccc(O)cc2n1-c1ccccc1,1 µg/mL
13,CN(Cc1ccccc1)S(=O)(=O)c1ccc(NC(=O)c2ccccc2C(=O)O)cc1,61.7 µg/mL
14,Brc1cccc(Nc2nc(-c3cccnc3)cs2)c1,< 0.2 µg/mL
15,CC(C)C(=O)Nc1cc(S(=O)(=O)N2CCOCC2)ccc1N1CCCCC1,49 µg/mL
16,O=C(Nc1cccc(S(=O)(=O)N2CCCCCC2)c1)c1cncc(Br)c1,13.1 µg/mL
17,Cn1c(N)c(C(=O)Nc2c(Cl)cccc2Cl)sc1=S,2.4 µg/mL
18,COc1ccc(OC)c(C(=O)c2coc3ccc(O)c(CN(C)C)c23)c1.Cl,> 58.8 µg/mL
19,Clc1cccc(Cl)c1CN1CCN(c2ncccn2)CC1,17.2 µg/mL
20,CCCCN(C(C)=O)c1ccc(S(=O)(=O)NC2=NCCCCC2)cc1NC(C)=O,> 63.4 µg/mL
21,NCC(c1ccccc1Cl)c1c[nH]c2ccccc12 (stereo unspecified),> 40.6 µg/mL
22,Cc1nc(Nc2ccccc2)sc1C(=O)c1ccc(F)cc1,2.4 µg/mL
23,NS(=O)(=O)c1ccc(NS(=O)(=O)c2ccc(Br)cc2)cc1,> 58.7 µg/mL
24,CCOC(=O)c1ccccc1NC(=O)C1CCCO1 (stereo unspecified),> 39.5 µg/mL

row,Compound,solubility kinetic
1,COc1ccc(-c2nnc(SCC(=O)Nc3c(Cl)cc(Cl)cc3C(=O)O)o2)cc1,> 68.1 µg/mL
2,Cc1ccc(OCC(=O)N2C(C)CCCC2C)c([N+](=O)[O-])n1 (stereo unspecified),> 46.1 µg/mL
3,COc1cc2nc(Cl)nc(NCCO)c2cc1OC,24.7 µg/mL
4,C#CCOc1c(Cl)cc(/C=C2/C(=O)ON=C2C)cc1OCC,39.4 µg/mL
5,O=C(Nc1cccc(O)c1)c1cc(-c2cccs2)on1,1.3 µg/mL
6,CCCOc1ccc(C2=CSC3=NCCN23)cc1[N+](=O)[O-],> 45.8 µg/mL
7,COc1ccc(S(=O)(=O)N2CC(=O)Nc3ccccc32)cc1C,> 49.9 µg/mL
8,Cc1ccsc1C1C(C#N)=C(N)OC2=C1C(=O)CC(C)C2 (stereo unspecified),38.7 µg/mL
9,CCc1c(O)c(-c2ccccc2)c(=O)n(-c2ccccn2)c1-c1ccccc1,> 55.3 µg/mL
10,CC(C(=O)Nc1ccc(Cl)cc1)N1C(=O)NC2(CCCC2)C1=O (stereo unspecified),25.8 µg/mL
11,CC(=O)Nc1ccc2c(c1)nc(C)n2-c1ccccc1,> 39.8 µg/mL
12,O=C1Nc2ccccc2O/C1=C\c1ccccc1Br,3.3 µg/mL
13,COc1ccc2oc3c(c2c1)NC(=O)CN=C3c1ccccc1,3.1 µg/mL
14,O=C(O)c1ccccc1C(=O)Nc1ccc(Oc2ccccc2)cc1,> 50 µg/mL
15,Cc1ccc(C(=O)NC(C)C2CCCO2)o1 (stereo unspecified),> 33.5 µg/mL
16,O=c1oc(Nc2ccccc2Cl)nc2ccccc12,7.9 µg/mL
17,CCCN(CC1CCCO1)C(=O)CCc1nnc(-c2cc(C)on2)o1 (stereo unspecified),> 52.3 µg/mL
18,O=C(CNS(=O)(=O)c1c(F)cccc1F)NC1CCCc2ccccc21 (stereo unspecified),> 57.1 µg/mL
19,Cc1ccc(Cn2ccc(O)c(Cc3ccccc3)c2=O)cc1,< 0.7 µg/mL
20,NS(=O)(=O)c1ccc(NC(=O)COc2ccc(Cl)cc2)cc1,2.5 µg/mL
21,CN(C)C=NC(=O)c1[nH]c2ccc(Cl)cc2c1-c1ccccc1,15.2 µg/mL
22,OCCNc1nc(-c2ccccc2)c2cc(Br)ccc2n1,24.2 µg/mL
23,O=C(Nc1ccccc1)Nc1ccc(C(F)(F)F)cn1,0.2 µg/mL
24,Cc1ccc2oc(=O)n(CCCOc3ccccc3C)c2c1,0.9 µg/mL

row,Compound,solubility kinetic
1,O=C(c1ccccc1)c1ccc(OCC(O)CN2CCCC2)cc1 (stereo unspecified),> 48.8 µg/mL
2,CCCOC(=O)C1=C(C)N(C)C(=O)NC1c1cc2c(cc1[N+](=O)[O-])OCO2 (stereo unspecified),49.4 µg/mL
3,O=C(NCCCN1CCOCC1)c1cc(-c2ccco2)nc2ccccc12,49.6 µg/mL
4,Cc1ccc(C2(c3noc(CN(C)Cc4cccnc4)n3)CCCC2)cc1,42.1 µg/mL
5,CCn1c(=O)c2ccccc2n(Cc2ccc([N+](=O)[O-])cc2)c1=O,5.6 µg/mL
6,COc1ccc(Nc2nc(C)nc3c2oc2ccccc23)c(OC)c1,< 0.2 µg/mL
7,Cn1nc(C(=O)NC2CCCC2)c2ccccc2c1=O,> 40.7 µg/mL
8,Cc1ccnc(N2CCC(C(=O)NNC(=O)c3ccncc3)CC2)n1,> 51.1 µg/mL
9,CCOc1ccc(N2C(=O)CSC2=NC#N)cc1,38.3 µg/mL
10,O=C(COC(=O)C(CO)NS(=O)(=O)c1ccc(Br)cc1)Nc1ccc2c(c1)OCCO2 (stereo unspecified),> 77.3 µg/mL
11,COC(=O)c1cc(S(=O)(=O)N2CCCC(C)C2)cn1C (stereo unspecified),43.2 µg/mL
12,O=C(COc1ccc2ccccc2c1Br)N1CCCC1,45.4 µg/mL
13,O=C(CCCc1ccccc1)Nc1cccc([N+](=O)[O-])c1,26.4 µg/mL
14,Cc1ccsc1C(=O)Nc1nc2ccccc2[nH]1,2 µg/mL
15,O=C(CN1CCc2ccccc2C1)Nc1ccc(F)cc1F,28.5 µg/mL
16,O=C(CSCc1ccc(Cl)cc1)Nc1ccc(O)cc1C(=O)O,> 52.8 µg/mL
17,CCOC(=O)/C=C(C)\C=C\c1c[nH]c2ccccc12,12.5 µg/mL
18,CCNC(=S)N1CCC(C(N)=O)CC1,> 32.3 µg/mL
19,O=C(COC(=O)c1ccc([N+](=O)[O-])o1)Nc1ccc2c(c1)OCO2,16.9 µg/mL
20,CC(=O)C1=C(O)C(=O)N(C)C1c1ccccc1[N+](=O)[O-] (stereo unspecified),> 41.4 µg/mL
21,CC1C(=O)N2CCCc3cc(S(=O)(=O)N4CCCCC4)cc1c32 (stereo unspecified),> 50.2 µg/mL
22,O=C(O)CCN1C(=O)c2ccc(Oc3ccc([N+](=O)[O-])cc3)cc2C1=O,52.9 µg/mL
23,CC(=O)CCN1C(=O)NC2(CCCc3ccccc32)C1=O (stereo unspecified),> 42.9 µg/mL
24,CC(NCCC1(Cc2ccccc2Cl)CCOC(C)(C)C1)c1cccs1 (stereo unspecified),46.3 µg/mL

row,Compound,solubility kinetic
1,Cc1nc(N2CCOCC2)nc(N2CCC(C)CC2)c1[N+](=O)[O-],12.6 µg/mL
2,Cc1cc(N2CC(C(=O)Nc3nccs3)CC2=O)ccc1C(C)C (stereo unspecified),1.4 µg/mL
3,O=C(CN1C(=O)NC2(CCCCCC2)C1=O)c1ccc(F)cc1,> 47.8 µg/mL
4,Br.COC(=O)CN1C2=NCCCN2c2ccccc21,> 48.9 µg/mL
5,C=CCOc1cccc(C2NC(=O)c3ccccc3O2)c1 (stereo unspecified),3 µg/mL
6,O=CN1Cc2ccccc2-c2ccccc2C1,> 33.5 µg/mL
7,CCOc1ccc(NC(=O)[C@@H](NC(=O)c2ccco2)C(C)C)cc1,> 49.6 µg/mL
8,N#CCSc1ccc(-c2nc3ccccc3[nH]2)cn1,17 µg/mL
9,O=S(=O)(c1ccccc1)N(CC1CO1)c1cc(Cl)ccc1Cl (stereo unspecified),36.4 µg/mL
10,Cc1ccc(S(=O)(=O)Nc2ccccc2C(=O)N2CCCCC2)cc1,> 53.8 µg/mL
11,Cc1cc(=O)n(C(C)(C)C)c(=O)n1Cc1ccccc1,> 40.9 µg/mL
12,Cc1ccsc1-c1nc(CN2C[C@@H](C)O[C@@H](C)C2)c(C)o1,> 46 µg/mL
13,Cc1ccc2oc(=O)n(CC(=O)N3CCOCC3)c2c1,> 41.4 µg/mL
14,O=C(CCCCl)NC(=S)Nc1ccc(N2CCOCC2)cc1,11.4 µg/mL
15,Cc1cccc2nc(CSc3ncccc3C(=O)O)cn12,39.3 µg/mL
16,Cc1cc(=O)oc2cc(NC(=O)c3cccc(S(C)(=O)=O)c3)ccc12,3.5 µg/mL
17,COc1cc(CN2CCNCC2)cc(OC)c1OC.Cl,23.1 µg/mL
18,CC(=O)N/C(=N\c1nc(C)cc(C)n1)Nc1ccccc1Cl,0.5 µg/mL
19,NC(=O)COC(=O)c1ccc2noc(-c3ccccc3)c2c1,26.1 µg/mL
20,Cc1cc(C)c(OCCN(C)C)c(Cl)c1.O=C(O)C(=O)O,> 47.7 µg/mL
21,CCOc1ccccc1CN1C(=O)NC2(CCCCCC2)C1=O,46.6 µg/mL
22,COc1ccccc1N1CCN(CCN2C(=O)C3CCCN3C2=O)CC1 (stereo unspecified),40.7 µg/mL
23,O=C(COC(=O)c1cccc(Cl)c1)Nc1cccc(S(=O)(=O)NC2=NCCC2)c1,63.3 µg/mL
24,O=C(COc1ccccc1[N+](=O)[O-])N1CCCc2ccccc21,> 46.8 µg/mL

row,Compound,solubility kinetic
1,CCN1C(=O)c2ccccc2Sc2ccc(C(=O)NC(C)C)cc21,47.9 µg/mL
2,COc1ccc(-c2ncncc2-c2ccc(Cl)cc2)c(O)c1,1.1 µg/mL
3,O=C(NC1CCCC1)C1CCCN(S(=O)(=O)c2ccc(F)cc2)C1 (stereo unspecified),3.4 µg/mL
4,CCN(CC)C(=O)Cn1cc(SCC(=O)NC)c2ccccc21,46.5 µg/mL
5,COc1ccc(NC(=O)CSc2nc(C)cs2)c([N+](=O)[O-])c1,45.1 µg/mL
6,CCN(CC)C(=O)N1c2ccccc2Sc2ccccc21,2.8 µg/mL
7,COc1ccc(CCNC(=O)Nc2ccc3c(c2)OCO3)cc1OC,5.3 µg/mL
8,Cl.OCCNc1nc(N2CCCCC2)nc2ccccc12,> 46.3 µg/mL
9,CCOC(=O)C(NC(=O)C1C(C)N1S(=O)(=O)c1ccc(C)cc1)C(=O)OCC (stereo unspecified),> 61.9 µg/mL
10,COc1cc(C2NC(=O)NC(C)=C2[N+](=O)[O-])cc(OC)c1OC (stereo unspecified),47.3 µg/mL
11,CC(C)c1cc(O)c(-c2ccccc2)c(=O)n1-c1ccc(Cl)cc1,< 0.7 µg/mL
12,COc1ccc(C(=O)CC(=O)C(=O)Nc2c(C)cccc2C)cc1,15.6 µg/mL
13,O=C(O)Cc1ccc(NCc2ccccc2Cl)cc1,28 µg/mL
14,COc1ccc(C(=O)c2sc(Nc3ccccc3)nc2N)cc1,2.2 µg/mL
15,CC(=O)N(c1cccc(Cl)c1)c1nc(C)cc(C)c1C#N,> 45 µg/mL
16,CC(=O)Nc1ccc(Oc2nc(-c3ccccn3)nc3ccccc23)cc1,6.8 µg/mL
17,CC(C)(C#N)NC(=O)C(=O)c1c(-c2ccccc2)cc2ccccn12,> 49.7 µg/mL
18,COc1ccc(C(=O)OCC(=O)Nc2c(C)cccc2C)cc1,< 0.7 µg/mL
19,N#C/C(=C\c1cccc(Oc2ccccc2)c1)C(=O)N1CCOCC1,42.5 µg/mL
20,COc1ccc(NC(=O)[C@@H](NS(=O)(=O)c2cccc(Cl)c2)C(C)C)cc1S(=O)(=O)N1CCOCC1,> 81.9 µg/mL
